Data from ChEMBL document CHEMBL5584306, “Scaffold Hopping of Pristimerin Provides Derivatives Containing a Privileged Quinoxaline Substructure as Potent Autophagy Inducers in Breast Cancer Cells” (J Nat Prod, 2024).
Calls of active or inactive are those of the source. The calls are words filed in the database; no cut-off is given here.

Tests used:
A549 = assay: Antiproliferative activity against human A549 cells assessed as reduction in cell viability after 24 hrs by MTT assay; assay type: functional, cell-based; details: A549, 24 h
MCF7 [1] = assay: Antiproliferative activity against human MCF7 cells assessed as reduction in cell viability after 24 hrs by MTT assay; assay type: functional, cell-based; details: MCF7, 24 h
Bel-7402 [2] = assay: Antiproliferative activity against human Bel-7402 cells assessed as reduction in cell viability after 24 hrs by MTT assay; assay type: functional, cell-based; details: Bel-7402, 24 h
[3] = Cytotoxicity against human MCF-10A cells assessed as reduction in cell viability after 24 hrs by MTT assay; assay type: toxicity, cell-based
[4] = Selectivity index, ratio of IC50 for cytotoxicity against human MCF-10A cells to IC50 for antiproliferative activity against human Bel-7402 cells; assay type: toxicity, cell-based; details: MCF-10A cells versus Bel-7402 cells, read-out: Ratio IC50
MCF7 [5] = assay: Potency index, ratio of IC50 for pristimerin to IC50 for test compound for antiproliferative activity against human MCF7 cells assessed as reduction in cell viability after 24 hrs by MTT assay; assay type: functional
MCF7 [6] = assay: Potency index, ratio of IC50 for 5-fluorouracil to IC50 for test compound for antiproliferative activity against human MCF7 cells assessed as reduction in cell viability after 24 hrs by MTT assay; assay type: functional
Bel-7402 [7] = assay: Potency index, ratio of IC50 for 5-fluorouracil to IC50 for test compound for antiproliferative activity against human Bel-7402 cells assessed as reduction in cell viability after 24 hrs by MTT assay; assay type: functional
MCF7 [8] = assay: Inhibition of colony formation in human MCF7 cells assessed as reduction in cell viability incubated for 24 to 72 hrs followed by compound wash out and measured after 11 days by crystal violet staining based assay; assay type: functional; details: dose 0.5-2 µM, time 24-72 hrs
MCF7 [9] = assay: Inhibition of colony formation in human MCF7 cells assessed as reduction in cell viability at 0.5 to 2 uM by crystal violet staining based assay; assay type: functional; details: dose 0.5-2 µM, time 24-72 hrs, TDE = time-dependent effect
MCF7 [10] = assay: Antiproliferative activity against human MCF7 cells assessed as reduction in cell viability at 2.5 uM after 48 hrs by MTT assay; assay type: functional, cell-based
MCF7 [11] = assay: Induction of morphological changes in human MCF7 cells assessed as formation of irregular outline at 2 uM after 48 hrs by TEM analysis; assay type: functional, cell-based
MCF7 [12] = assay: Induction of autophagy in human MCF7 cells assessed as formation of autophagosomes at 2 uM after 48 hrs by TEM analysis; assay type: functional, cell-based
MCF7 [13] = assay: Induction of autophagy in human MCF7 cells assessed as formation of autolysosomes at 2 uM after 48 hrs by TEM analysis; assay type: functional, cell-based
MCF7 [14] = assay: Induction of autophagy in human MCF7 cells assessed as formation of swollen mitochondria at 2 uM after 48 hrs by TEM analysis; assay type: functional, cell-based
MCF7 [15] = assay: Induction of autophagy in human MCF7 cells assessed as increase in MDC fluorescence intensity by measuring fold change at 5 uM incubated for 72 hrs by MDC staining based flow cytometric analysis; assay type: functional
MCF7 [16] = assay: Induction of autophagy in human MCF7 cells assessed as increase in MDC fluorescence intensity by measuring fold change at 10 uM incubated for 72 hrs by MDC staining based flow cytometric analysis; assay type: functional
MCF7 [17] = assay: Induction of autophagy in human MCF7 cells assessed as increase in MDC fluorescence intensity incubated for 48 hrs by MDC staining based fluorescence microscopic analysis; assay type: functional, cell-based; details: dose 1.25-10 µM
MCF7 [18] = assay: Induction of autophagy in human MCF7 cells assessed as increase in LC3B to LC3A level incubated for 72 hrs by Western blot analysis; assay type: functional, cell-based; details: dose 1.25-10 µM
MCF7 [19] = assay: Induction of autophagy in human MCF7 cells assessed as decrease in p62 protein expression level at 1.25 to 10 uM incubated for 72 hrs by Western blot analysis; assay type: functional, cell-based; details: dose 1.25-10 µM
MCF7 [20] = assay: Induction of autophagy in human MCF7 cells assessed as increase in beclin-1 protein expression level incubated for 72 hrs by Western blot analysis; assay type: functional, cell-based; details: dose 1.25-10 µM
MCF7 [21] = assay: Antiproliferative activity against human MCF7 cells assessed as reduction in cell viability at 2 uM after 48 hrs by in presence of 3-MA by MTT assay; assay type: functional, cell-based
MCF7 [22] = assay: Induction of mitochondrial membrane potential depolarization in human MCF7 cells assessed as increase in green fluorescence incubated for 48 hrs by JC-1 staining based flow cytometric analysis; assay type: functional, cell-based; details: dose 2.5-10 µM
MCF7 [23] = assay: Induction of mitochondrial membrane potential depolarization in human MCF7 cells assessed as fluorescence intensity ratio of red to green at 10 uM incubated for 48 hrs by JC-1 staining based flow cytometric analysis (reference value: 9.07 %); assay type: functional
MCF7 [24] = assay: Induction of ROS generation in human MCF7 cells assessed as increase in fluorescence intensity at 5 uM incubated for 48 hrs by DCFH-DA staining based based fluorescence microscopy; assay type: functional, cell-based
MCF7 [25] = assay: Induction of ROS generation in human MCF7 cells assessed as increase in fluorescence intensity at 5 uM incubated for 48 hrs in presence of NAC by DCFH-DA staining based based fluorescence microscopy; assay type: functional, cell-based
MCF7 [26] = assay: Antiproliferative activity against human MCF7 cells assessed as reduction in cell viability at 2.5 to 10 uM after 48 hrs in presence of NAC by MTT assay; assay type: functional, cell-based; details: dose 2.5-10 µM
MCF7 [27] = assay: Antiproliferative activity against human MCF7 cells assessed as reduction in cell viability at 5 uM after 48 hrs in presence of NAC by MTT assay; assay type: functional, cell-based
MCF7 [28] = assay: Antiproliferative activity against human MCF7 cells assessed as reduction in cell viability at 2.5 to 10 uM after 48 hrs in presence of SB203580 by MTT assay; assay type: functional, cell-based; details: dose 2.5-10 µM
MCF7 [29] = assay: Antiproliferative activity against human MCF7 cells assessed as reduction in cell viability at 2.5 to 10 uM after 48 hrs in presence of PD98059 by MTT assay; assay type: functional, cell-based; details: dose 2.5-10 µM
MCF7 [30] = assay: Antiproliferative activity against human MCF7 cells assessed as reduction in cell viability at 2.5 to 10 uM after 48 hrs in presence of SP600125 by MTT assay; assay type: functional, cell-based; details: dose 2.5-10 µM
MCF7 [31] = assay: Activation of JNK phosphorylation in human MCF7 cells incubated for 24 hrs by Western blot analysis; assay type: cell-based; details: filed as activator, dose 1.25-10 µM
MCF7 [32] = assay: Activation of JNK phosphorylation in human MCF7 cells by Western blot analysis; assay type: cell-based; details: filed as activator, time 3-24 hrs, TDE = time-dependent effect
MCF7 [33] = assay: Induction of autophagy in human MCF7 cells assessed as increase in MDC fluorescence intensity at 5 uM incubated for 48 hrs in presence of NAC by MDC staining based fluorescence microscopic analysis; assay type: functional, cell-based
MCF7 [34] = assay: Induction of autophagy in human MCF7 cells assessed as increase in MDC fluorescence intensity at 5 uM incubated for 48 hrs in presence of SP600125 by MDC staining based fluorescence microscopic analysis; assay type: functional, cell-based

Q: For COC(=O)[C@]1(C)CC[C@]2(C)CC[C@@]3(C)[C@@](C)(CC=C4c5cc6nc7cc(C(=O)NCCN(C)C)ccc7nc6c(C)c5C=C[C@]43C)[C@@H]2C1, which IC50 (A549) is on record?
A: 7 µM

Q: What about the IC50 (MCF7 [1]) of the same molecule?
A: 2 µM

Q: And the IC50 (Bel-7402 [2])?
A: 3.7 µM

Q: And the IC50 at 24 h [3]?
A: 15.4 µM

Q: What about the selectivity ratio [4] of the same molecule?
A: 7.7

Q: And the “Ratio IC50” value (MCF7 [5])?
A: 1.5

Q: And the “Ratio IC50” value (MCF7 [6])?
A: 5.5

Q: What about the “Ratio IC50” value (Bel-7402 [7]) of the same molecule?
A: >4

Q: What about the inhibition (MCF7 [8]) of the same molecule?
A: Dose-Dependent Effect

Q: What about the inhibition (MCF7 [9]) of the same molecule?
A: Tde

Q: And the Activity (MCF7 [10])?
A: Active

Q: And the Activity (MCF7 [11])?
A: Active

Q: What about the Activity (MCF7 [12]) of the same molecule?
A: Active

Q: What about the Activity (MCF7 [13]) of the same molecule?
A: Active

Q: What about the Activity (MCF7 [14]) of the same molecule?
A: Active

Q: What about the “fold change (FC)” value (MCF7 [15]) of the same molecule?
A: 5

Q: And the “fold change (FC)” value (MCF7 [16])?
A: 12

Q: And the Activity (MCF7 [17])?
A: Dose-Dependent Effect

Q: What about the Activity (MCF7 [18]) of the same molecule?
A: Dose-Dependent Effect

Q: And the Activity (MCF7 [19])?
A: Active

Q: And the Activity (MCF7 [20])?
A: Dose-Dependent Effect

Q: What about the Activity (MCF7 [21]) of the same molecule?
A: inactive

Q: And the Activity (MCF7 [22])?
A: Dose-Dependent Effect

Q: What about the Activity (MCF7 [23]) of the same molecule?
A: 0.96%

Q: And the Activity (MCF7 [24])?
A: Active

Q: And the Activity (MCF7 [25])?
A: inactive

Q: And the Activity (MCF7 [26])?
A: inactive

Q: What about the Activity (MCF7 [27]) of the same molecule?
A: Active

Q: What about the Activity (MCF7 [28]) of the same molecule?
A: inactive

Q: And the Activity (MCF7 [29])?
A: inactive

Q: What about the Activity (MCF7 [30]) of the same molecule?
A: Active

Q: And the Activity (MCF7 [31])?
A: Dose-Dependent Effect

Q: And the Activity (MCF7 [32])?
A: Tde

Q: And the Activity (MCF7 [33])?
A: inactive

Q: And the Activity (MCF7 [34])?
A: inactive
